From PubChem BioAssay (NCI)
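Dose response: 5 concentrations. Exposure: 48 h. Format: 96-well plates. Endpoint: linear interpolation; highest concentration if not reached. GI50 = concentration required for 50% inhibition of growth. TGI denotes the concentration required for complete inhibition of growth.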

Experiments:
Test in all cases: growth of human tumour cells (NCI), 48 h
786-0 renal = tested on: 786-0 renal
NCI-H522 lung = tested on: NCI-H522 lung
RXF 393 renal = tested on: RXF 393 renal
OVCAR-4 ovarian = tested on: OVCAR-4 ovarian
NCI-H23 lung = tested on: NCI-H23 lung
SF-268 CNS = tested on: SF-268 CNS
SK-OV-3 ovarian = tested on: SK-OV-3 ovarian
HL-60(TB) leukemia = tested on: HL-60(TB) leukemia
U251 CNS = tested on: U251 CNS
SR leukemia = tested on: SR leukemia
CCRF-CEM leukemia = tested on: CCRF-CEM leukemia
HS 578T breast = tested on: HS 578T breast
MOLT-4 leukemia = tested on: MOLT-4 leukemia
UACC-257 melanoma = tested on: UACC-257 melanoma
MDA-MB-231 breast = tested on: MDA-MB-231 breast
HCT-116 colon = tested on: HCT-116 colon
LOX IMVI melanoma = tested on: LOX IMVI melanoma
MCF7 breast = tested on: MCF7 breast
OVCAR-8 ovarian = tested on: OVCAR-8 ovarian
NCI-H460 lung = tested on: NCI-H460 lung
TK-10 renal = tested on: TK-10 renal
IGROV1 ovarian = tested on: IGROV1 ovarian
A549 NSCLC = tested on: A549 NSCLC
HT29 colon = tested on: HT29 colon
NCI/ADR-RES ovarian = tested on: NCI/ADR-RES ovarian
HOP-62 NSCLC = tested on: HOP-62 NSCLC
RPMI-8226 leukemia = tested on: RPMI-8226 leukemia
SW-620 colon = tested on: SW-620 colon
KM12 colon = tested on: KM12 colon

## NC(N)=N/N=C/c1ccc(Br)cc1
786-0 renal
  GI50: 5.11 µM
  TGI: 17.7 µM
NCI-H522 lung
  GI50: 4.39 µM
  TGI: 17.7 µM
RXF 393 renal
  GI50: 3.68 µM
  TGI: 12.3 µM
OVCAR-4 ovarian
  GI50: 10.3 µM
  TGI: 31.6 µM
NCI-H23 lung
  GI50: 4.81 µM
  TGI: 19.6 µM
SF-268 CNS
  GI50: 12.4 µM
  TGI: 38.2 µM
SK-OV-3 ovarian
  GI50: 6.75 µM
  TGI: 30.5 µM
HL-60(TB) leukemia
  GI50: 2.5 µM
  TGI: > 100 µM
U251 CNS
  GI50: 3.58 µM
  TGI: 15.4 µM
SR leukemia
  GI50: 1.84 µM
  TGI: 47 µM
CCRF-CEM leukemia
  GI50: 12.6 µM
  TGI: > 100 µM
HS 578T breast
  GI50: 3.33 µM
  TGI: 10.2 µM
MOLT-4 leukemia
  GI50: 3.98 µM
  TGI: > 100 µM
UACC-257 melanoma
  GI50: 12.8 µM
  TGI: 29.1 µM
MDA-MB-231 breast
  GI50: 4.49 µM
  TGI: 14 µM
HCT-116 colon
  GI50: 4.02 µM
  TGI: 15.8 µM
LOX IMVI melanoma
  GI50: 6.45 µM
  TGI: 20.8 µM
MCF7 breast
  GI50: 2.28 µM
  TGI: 11.7 µM
OVCAR-8 ovarian
  GI50: 5.3 µM
  TGI: 21.2 µM
NCI-H460 lung
  GI50: 3.29 µM
  TGI: 11.7 µM
TK-10 renal
  GI50: 7.44 µM
  TGI: 21.3 µM
IGROV1 ovarian
  GI50: 4.91 µM
  TGI: 24.2 µM
A549 NSCLC
  GI50: 6.46 µM
  TGI: 23.4 µM
HT29 colon
  GI50: 3.03 µM
  TGI: 11.3 µM
NCI/ADR-RES ovarian
  GI50: 3.15 µM
  TGI: 10.6 µM
HOP-62 NSCLC
  GI50: 9.8 µM
  TGI: 24.2 µM
RPMI-8226 leukemia
  GI50: 11.6 µM
  TGI: > 100 µM
SW-620 colon
  GI50: 3.8 µM
  TGI: 15.9 µM
KM12 colon
  GI50: 3.42 µM
